Values belong to the molecule of their own block, whether it stands above or below them. No end group written: not given here.
How the values were obtained:
[1] = tested on: taf14Δ cells; assay: Spotting assay, sensitivity to DNA-damaging agents; type: cell-based, S. cerevisiae; settings: Supplemental Fig. S3D
[2] = tested on: Yaf9 YEATS domain; settings: capacity to bind in vitro; ref Li et al. 2014; cited from earlier work
[3] = molecular target: T1, Taf14 YEATS (residues 1–132) (Saccharomyces cerevisiae, UniProt P35189); assay: NMR chemical shift perturbation; type: binding, S. cerevisiae; settings: for amide resonance changes / interaction: 15N-labeled Taf14 YEATS (1–132), peptide titration
T1 sequence (P35189 1-132): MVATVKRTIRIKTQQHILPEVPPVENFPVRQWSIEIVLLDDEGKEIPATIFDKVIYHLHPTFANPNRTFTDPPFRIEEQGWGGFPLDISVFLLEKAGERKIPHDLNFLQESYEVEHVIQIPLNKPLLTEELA

[4] = tested on: taf14Δ strain (BY4741 background); assay: Spotting assay on 6-azauracil medium; type: cell-based, S. cerevisiae; settings: Fig. 4F
[5] = tested on: taf14Δ cells; settings: ref Zhang et al. 2004; cited from earlier work
[6] = 1H,15N HSQC, Supplemental Fig. S2A

Molecule: phleomycin
sensitivity of taf14Δ strain [1]: sensitivity

Molecule: H3K27ac: H3 peptide acetylated at Lys27 (ATKAARK(Ac)SAPA)
preference of Yaf9 YEATS domain [2]: capacity to bind

amide resonance changes / interaction ([3]; 1H,15N HSQC): strong interaction
Molecule: H3K9ac1–12: H3K9ac1–12 peptide

CSP magnitude relative to H3K9ac ([3]; 1H,15N HSQC, Supplemental Fig. S2B): smaller in magnitude
binding relative to H3K9ac ([3]; inferred from CSP magnitude, Supplemental Fig. S2B): weaker
Molecule: H3K27ac21–31: H3K27ac21–31 peptide (ATKAARK(Ac)SAPA)

Molecule: CC(=O)NCCCC[C@H](N)C(=O)O [acetylated lysine]
amide resonance changes / interaction ([3]; 1H,15N HSQC): CSPs primarily in an acetyllysine-binding pocket

Molecule: O=c1cn[nH]c(=O)[nH]1 [6-AU, 6-azauracil]
rescue of 6-AU growth by taf14W81A ([4]; taf14Δ expressing taf14W81A): unable to rescue
rescue of 6-AU sickness by exogenous TAF14 ([4]; taf14Δ expressing wild-type TAF14): could rescue

Molecule: NC(=O)NO [HU, hydroxyurea]
sensitivity of taf14Δ cells [5]: sensitive
sensitivity of taf14Δ strain [1]: sensitivity

Molecule: COS(C)(=O)=O [MMS, methane methylsulfonate]
sensitivity of taf14Δ cells [5]: sensitive
effect of Taf14 YEATS disruption on response to agent ([1]; taf14Δ expressing taf14W81A): significantly impaired the response

binding relative to H3K9ac1–12 [3, 6]: slightly decreased
Molecule: H3K9ac5–13: H3K9ac5–13 peptide (Ac-QTARK(Ac)STGG)
resonance perturbation pattern relative to H3K9ac1–12 [3, 6]: nearly identical resonance perturbation pattern

— paper PMC4573853 (Genes & Development, 2015)
